Counter-ions that a name gives are not always drawn. Like-named read-outs stand apart in the source and are kept apart here.
Assays:
primary rat microglia [1] = test: Cell toxicity (dead cells, size <150 μm2) in LPS assay
[2] = tested on: fibrin- and LPS-induced microglia activation; test: cells; type: cell-based, rat
[3] = tested on: fibrin-induced microglia activation; test: Image-based assay of fibrin-induced microglia activation (HTS and dose response); type: cell-based, rat; details: for inhibition at 10 µM: Rattus norvegicus, Microglia, read-out: Fibrin % inhibition
[4] = tested on: LPS-induced microglia activation; test: Image-based assay of LPS-induced microglia activation (HTS and dose response); type: cell-based, rat; details: for inhibition at 10 µM: Rattus norvegicus, Microglia, read-out: LPS % inhibition
primary rat microglia [5] = test: Cell toxicity (dead cells, size <150 μm2) in coated fibrin (cFib) assay;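 further: share of dead cells sized under 150 µm2 at 10 µM in fibrin-stimulated microglia HTS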
[6] = primary HTS, 10 μM, LPS assay, dead cells size <150 μm2
[7] = primary HTS, 10 μM, fibrin-stimulated primary microglia
[8] = primary HTS, 10 μM, LPS-stimulated primary microglia
[9] = primary HTS, 10 μM, fibrin assay, dead cells size <150 μm2
[10] = primary microglia HTS, LPS stimulation, decreased size (<150 μm^2) as marker of toxicity
[11] = quadrant by fibrin and LPS inhibition in HTS of 1907 compounds
[12] = primary microglia HTS, fibrin stimulation, increased cell size (>800 μm^2) as marker of activation
[13] = 48 h, primary microglia HTS, LPS stimulation, increased cell size (>800 μm^2) as marker of activation
[14] = primary microglia HTS, fibrin stimulation, decreased size (<150 μm^2) as marker of toxicity

SMILES: O=C(O)C1=C(CSc2nnnn2CS(=O)(=O)O)CS[C@@H]2[C@H](NC(=O)[C@H](O)c3ccccc3)C(=O)N12 [Cefonicid Sodium]
- LPS % cell toxicity (primary rat microglia [1]; [6]): 0%
- Quadrant (FIG. 5b) ([2]; primary HTS, 10 μM): Q4
- inhibition at 10 µM [3, 7]: -11%
- inhibition at 10 µM [4, 8]: 15%
- Fibrin % cell toxicity (primary rat microglia [5]; [9]): 0%

SMILES: NCc1ccccc1CC(=O)N[C@@H]1C(=O)N2C(C(=O)O)=C(CSc3nnnn3CC(=O)O)CS[C@H]12 [Ceforanide]
- LPS % cell toxicity (primary rat microglia [1]; [6]): 1%
- Quadrant (FIG. 5b) ([2]; primary HTS, 10 μM): Q4
- inhibition at 10 µM [3, 7]: -2%
- inhibition at 10 µM [4, 8]: 14%
- Fibrin % cell toxicity (primary rat microglia [5]; [9]): 1%

SMILES: CO/N=C(\C(=O)N[C@@H]1C(=O)N2C(C(=O)O)=C(COC(C)=O)CS[C@H]12)c1csc(N)n1 [Cefotaxime Sodium]
- LPS % cell toxicity (primary rat microglia [1]; [6]): 0%
- Quadrant (FIG. 5b) ([2]; primary HTS, 10 μM): Q4
- Fibrin % inhibition [3, 7]: −1%
- LPS % inhibition [4, 8]: 3%
- Fibrin % cell toxicity (primary rat microglia [5]; [9]): 0%

SMILES: CO/N=C(\C(=O)N[C@@H]1C(=O)N2C(C(=O)O)=C(COC(C)=O)CS[C@H]12)c1csc(N)n1 [Cefotaxime]
- LPS % cell toxicity (primary rat microglia [1]; [6]): 0%
- Quadrant (FIG. 5b) ([2]; primary HTS, 10 μM): Q4
- Fibrin % inhibition [3, 7]: −20%
- LPS % inhibition [4, 8]: −8%
- Fibrin % cell toxicity (primary rat microglia [5]; [9]): 1%

SMILES: CO[C@@]1(NC(=O)C2SC(=C(C(N)=O)C(=O)O)S2)C(=O)N2C(C(=O)O)=C(CSc3nnnn3C)CS[C@@H]21 (stereo partly drawn) [Cefotetan]
- LPS % cell toxicity (primary rat microglia [1]; [6]): 0%
- Quadrant (FIG. 5b) ([2]; primary HTS, 10 μM): Q4
- inhibition at 10 µM [3, 7]: -11%
- inhibition at 10 µM [4, 8]: -5%
- Fibrin % cell toxicity (primary rat microglia [5]; [9]): 0%

SMILES: CO[C@@]1(NC(=O)Cc2cccs2)C(=O)N2C(C(=O)O)=C(COC(N)=O)CS[C@@H]21 [Cefoxitin]
- LPS % cell toxicity (primary rat microglia [1]; [6]): 0%
- Quadrant (FIG. 5b) ([2]; primary HTS, 10 μM): Q4
- inhibition at 10 µM [3, 7]: 6%
- inhibition at 10 µM [4, 8]: 8%
- Fibrin % cell toxicity (primary rat microglia [5]; [9]): 0%

SMILES: Cc1cc(O)c(C(=O)N[C@@H](C(=O)N[C@@H]2C(=O)N3C(C(=O)O)=C(CSc4nnnn4C)CS[C@H]23)c2ccc(O)cc2)cn1 [Cefpiramide]
- LPS % cell toxicity (primary rat microglia [1]; [6]): 0%
- Quadrant (FIG. 5b) ([2]; primary HTS, 10 μM): Q4
- inhibition at 10 µM [3, 7]: 12%
- inhibition at 10 µM [4, 8]: 20%
- Fibrin % cell toxicity (primary rat microglia [5]; [9]): 1%

SMILES: COCC1=C(C(=O)OC(C)OC(=O)OC(C)C)N2C(=O)[C@@H](NC(=O)/C(=N\OC)c3csc(N)n3)[C@H]2SC1 (stereo partly drawn) [Cefpodoxime Proxetil]
- LPS % cell toxicity (primary rat microglia [1]; [6]): 0%
- Quadrant (FIG. 5b) ([2]; primary HTS, 10 μM): Q4
- inhibition at 10 µM [3, 7]: -39%
- inhibition at 10 µM [4, 8]: 12%
- Fibrin % cell toxicity (primary rat microglia [5]; [9]): 0%

SMILES: NC(=O)c1cc[n+](CC2=C(C(=O)O)N3C(=O)[C@@H](NC(=O)[C@@H](c4ccccc4)S(=O)(=O)[O-])[C@H]3SC2)cc1 [Cefsulodin Sodium]
- LPS % cell toxicity (primary rat microglia [1]; [6]): 0%
- Quadrant (FIG. 5b) ([2]; primary HTS, 10 μM): Q4
- inhibition at 10 µM [3, 7]: 3%
- inhibition at 10 µM [4, 8]: 14%
- Fibrin % cell toxicity (primary rat microglia [5]; [9]): 0%

SMILES: Nc1nc(/C(=C/CC(=O)O)C(=O)N[C@@H]2C(=O)N3C(C(=O)O)=CCS[C@H]23)cs1 [Ceftibuten]
- LPS % cell toxicity (primary rat microglia [1]; [6]): 0%
- Quadrant (FIG. 5b) ([2]; primary HTS, 10 μM): Q4
- inhibition at 10 µM [3, 7]: -7%
- inhibition at 10 µM [4, 8]: 12%
- Fibrin % cell toxicity (primary rat microglia [5]; [9]): 1%

SMILES: CO/N=C(\C(=O)N[C@@H]1C(=O)N2C(C(=O)O)=C(CSC(=O)c3ccco3)CS[C@H]12)c1csc(N)n1 [Ceftiofur Hydrochloride]
- LPS % cell toxicity (primary rat microglia [1]; [6]): 0%
- Quadrant (FIG. 5b) ([2]; primary HTS, 10 μM): Q4
- inhibition at 10 µM [3, 7]: 4%
- inhibition at 10 µM [4, 8]: 14%
- Fibrin % cell toxicity (primary rat microglia [5]; [9]): 1%

SMILES: CO/N=C(\C(=O)N[C@@H]1C(=O)N2C(C(=O)OC(C)OC(C)=O)=C(COC(N)=O)CS[C@H]12)c1ccco1 (stereo partly drawn) [Cefuroxime Axetil]
- LPS % cell toxicity (primary rat microglia [1]; [6]): 0%
- Quadrant (FIG. 5b) ([2]; primary HTS, 10 μM): Q4
- inhibition at 10 µM [3, 7]: 17%
- inhibition at 10 µM [4, 8]: 13%
- Fibrin % cell toxicity (primary rat microglia [5]; [9]): 1%

SMILES: CC(=O)OCC1=C(C(=O)[O-])N2C(=O)[C@@H](NC(=O)CCCC(N)C(=O)O)[C@H]2SC1.[Na+] (stereo partly drawn) [Cephalosporin C Sodium]
- LPS % cell toxicity (primary rat microglia [1]; [6]): 0%
- Quadrant (FIG. 5b) ([2]; primary HTS, 10 μM): Q4
- Fibrin % inhibition [3, 7]: −34%
- LPS % inhibition [4, 8]: 8%
- Fibrin % cell toxicity (primary rat microglia [5]; [9]): 1%

SMILES: COc1ccc2cc1Oc1ccc(cc1)C[C@H]1c3c(cc4c(c3Oc3cc5c(cc3OC)CCN(C)[C@@H]5C2)OCO4)CCN1C [Cepharanthine]
- LPS % cell toxicity (primary rat microglia [1]; [10]): 58%
- Quadrant (FIG. 5b) [2, 11]: Q2
- inhibition at 10 µM [3, 12]: 114%
- inhibition at 10 µM [4, 13]: 130%
- Fibrin % cell toxicity (primary rat microglia [5]; [14]): 85%

SMILES: CC1=C(C(=O)O)N2C(=O)[C@@H](NC(=O)[C@H](N)C3=CCC=CC3)[C@H]2SC1 [Cephradine]
- LPS % cell toxicity (primary rat microglia [1]; [6]): 0%
- Quadrant (FIG. 5b) ([2]; primary HTS, 10 μM): Q4
- inhibition at 10 µM [3, 7]: -26%
- inhibition at 10 µM [4, 8]: -1%
- Fibrin % cell toxicity (primary rat microglia [5]; [9]): 0%

SMILES: CCCCCCCCCCCCCCCC[N+](C)(C)C [Cetrimonium]
- LPS % cell toxicity (primary rat microglia [1]; [10]): 12%
- Quadrant (FIG. 5b) [2, 11]: Q2
- inhibition at 10 µM [3, 12]: 114%
- inhibition at 10 µM [4, 13]: 132%
- Fibrin % cell toxicity (primary rat microglia [5]; [14]): 28%

SMILES: C[C@H](CCC(=O)O)[C@H]1CC[C@H]2[C@@H]3[C@H](O)C[C@@H]4C[C@H](O)CC[C@]4(C)[C@H]3CC[C@]12C [Chenodiol]
- LPS % cell toxicity (primary rat microglia [1]; [6]): 0%
- Quadrant (FIG. 5b) ([2]; primary HTS, 10 μM): Q4
- inhibition at 10 µM [3, 7]: -32%
- inhibition at 10 µM [4, 8]: 4%
- Fibrin % cell toxicity (primary rat microglia [5]; [9]): 0%

SMILES: CN1C(=O)CCS(=O)(=O)C1c1ccc(Cl)cc1 (stereo not drawn) [Chlomezanone, Chlormezanone]
- LPS % cell toxicity (primary rat microglia [1]; [6]): 0%
- Quadrant (FIG. 5b) ([2]; primary HTS, 10 μM): Q4
- Fibrin % inhibition [3, 7]: −52%
- LPS % inhibition [4, 8]: 12%
- Fibrin % cell toxicity (primary rat microglia [5]; [9]): 1%

SMILES: Cc1ccc(S(=O)(=O)[N-]Cl)cc1.[Na+] [Chloramine-t]
- LPS % cell toxicity (primary rat microglia [1]; [6]): 0%
- Quadrant (FIG. 5b) ([2]; primary HTS, 10 μM): Q4
- Fibrin % inhibition [3, 7]: 4%
- LPS % inhibition [4, 8]: 11%
- Fibrin % cell toxicity (primary rat microglia [5]; [9]): 1%

SMILES: CCCCCCCCCCCCCCCC(=O)OC[C@@H](NC(=O)C(Cl)Cl)[C@H](O)c1ccc([N+](=O)[O-])cc1 [Chloramphenicol Palmitate]
- LPS % cell toxicity (primary rat microglia [1]; [6]): 1%
- Quadrant (FIG. 5b) ([2]; primary HTS, 10 μM): Q4
- inhibition at 10 µM [3, 7]: 15%
- inhibition at 10 µM [4, 8]: 9%
- Fibrin % cell toxicity (primary rat microglia [5]; [9]): 1%

SMILES: Nc1ncnc(Nc2ccc(Cl)cc2)n1 [Chlorazanil Hydrochloride]
- LPS % cell toxicity (primary rat microglia [1]; [6]): 0%
- Quadrant (FIG. 5b) ([2]; primary HTS, 10 μM): Q4
- inhibition at 10 µM [3, 7]: 0%
- inhibition at 10 µM [4, 8]: 3%
- Fibrin % cell toxicity (primary rat microglia [5]; [9]): 1%

SMILES: CN1CCN(C(c2ccccc2)c2ccc(Cl)cc2)CC1 (stereo not drawn) [Chlorcyclizine]
- LPS % cell toxicity (primary rat microglia [1]; [6]): 0%
- Quadrant (FIG. 5b) ([2]; primary HTS, 10 μM): Q4
- inhibition at 10 µM [3, 7]: 9%
- inhibition at 10 µM [4, 8]: 6%
- Fibrin % cell toxicity (primary rat microglia [5]; [9]): 1%

SMILES: Oc1ccc(Cl)c2c1CCC2 [Chlorindanol]
- LPS % cell toxicity (primary rat microglia [1]; [6]): 0%
- Quadrant (FIG. 5b) ([2]; primary HTS, 10 μM): Q4
- inhibition at 10 µM [3, 7]: 23%
- inhibition at 10 µM [4, 8]: 15%
- Fibrin % cell toxicity (primary rat microglia [5]; [9]): 1%

SMILES: O=C1c2ccccc2C(=O)C1c1ccc(Cl)cc1 [Chlorindione]
- LPS % cell toxicity (primary rat microglia [1]; [6]): 0%
- Quadrant (FIG. 5b) ([2]; primary HTS, 10 μM): Q4
- Fibrin % inhibition [3, 7]: −7%
- LPS % inhibition [4, 8]: 10%
- Fibrin % cell toxicity (primary rat microglia [5]; [9]): 1%

SMILES: Cc1nc2ccccc2n1Cc1ccc(Cl)cc1 [Chlormidazole]
- LPS % cell toxicity (primary rat microglia [1]; [10]): 2%
- Quadrant (FIG. 5b) [2, 11]: Q1
- inhibition at 10 µM [3, 12]: 38%
- inhibition at 10 µM [4, 13]: 70%
- Fibrin % cell toxicity (primary rat microglia [5]; [14]): 1%

SMILES: CC(C)(O)C(Cl)(Cl)Cl [Chlorobutanol]
- LPS % cell toxicity (primary rat microglia [1]; [6]): 0%
- Quadrant (FIG. 5b) ([2]; primary HTS, 10 μM): Q4
- inhibition at 10 µM [3, 7]: -20%
- inhibition at 10 µM [4, 8]: 3%
- Fibrin % cell toxicity (primary rat microglia [5]; [9]): 1%

SMILES: Cc1cc(O)ccc1Cl [Chlorocresol]
- LPS % cell toxicity (primary rat microglia [1]; [6]): 0%
- Quadrant (FIG. 5b) ([2]; primary HTS, 10 μM): Q4
- inhibition at 10 µM [3, 7]: -25%
- inhibition at 10 µM [4, 8]: 11%
- Fibrin % cell toxicity (primary rat microglia [5]; [9]): 1%
